{"source": "patent EP4455142A1", "about": "“NOVEL INHIBITOR OF QPCTL AND/OR QC” (Scenic Immunology B.V., priority 2023, dated 2024)", "key": {"[1]": {"test_system": "Raji human Burkitt's lymphoma cells", "assay": "In vivo Raji xenograft mouse model", "design": "species or system NSG mice", "settings": "(1) 100 mg/kg orally once daily in combination with Rituximab 10 mg/kg intravenously Q3D, versus Rituximab alone", "experimental": "Anti tumor effects were determined in a model for Burkitt's lymphoma. NSG mice were intravenuously injected with 1 × 10^6 Raji human Burkitt's lymphoma cells. Four days after tumor cell injection, animals were treated with compound (1) as a single agent and in combination with Rituximab (anti-CD20 antibody). Compound (1) was administered at 100 mg/kg orally, once daily. Rituximab was dosed at 10 mg/kg intravenously every third day (Q3D). Tumor progression was evaluated by monitoring animal health and body weight measurement. […] Animals treated with compound in combination with Rituximab, on average, lived 5.5 days longer than animals treated with Rituximab alone."}, "[2]": {"assay": "Low dose pharmacokinetics", "format": "in vivo", "settings": "mouse, plasma, iv, 1 mg/kg; C57BI/6 mice, intravenously, 1 mg per kg bodyweight", "experimental": "In order to determine the stability of test compounds in plasma, low-dose pharmacokinetic experiments were carried out in C57BI/6 mice. Test compounds were dissolved at 0.1 mg/mL in an appropriate vehicle and dosed intravenously at 1 mg per kg bodyweight in three animals per compound. At various (between 5 and 9) timepoints after injection, up to 24 hours, blood samples were drawn, plasma isolated and test compound concentrations were determined using LC-MS/MS. t½ values were subsequently calculated using Phoenix WinNonlin 6.3 software and averaged over the three mice per test compound."}}}
{"smiles": "O=C1OC[C@H](c2ccc(-c3cnn(C(F)(F)F)c3)cc2F)N1c1ccc2[nH]cnc2c1", "note": "[Compound (1)]", "values": [{"measurement": "lived longer than animals treated with Rituximab alone (on average)", "setting": "[1]", "result": 5.5, "unit": "days"}, {"measurement": "half-life", "setting": "[2]", "result": "3.99 to 4.58", "unit": "h"}]}
